In patent US20260248763A1 (BIO GENUINE (SHANGHAI) BIOTECH CO., LTD, priority 2023, published 2026):

Biological target: T1, OTR (Homo sapiens, UniProt P30559)
T1 construct: expressed in transfected cells; host or cells: OTR/HEK293 stably transfected cell line
T1 sequence (P30559 1-389): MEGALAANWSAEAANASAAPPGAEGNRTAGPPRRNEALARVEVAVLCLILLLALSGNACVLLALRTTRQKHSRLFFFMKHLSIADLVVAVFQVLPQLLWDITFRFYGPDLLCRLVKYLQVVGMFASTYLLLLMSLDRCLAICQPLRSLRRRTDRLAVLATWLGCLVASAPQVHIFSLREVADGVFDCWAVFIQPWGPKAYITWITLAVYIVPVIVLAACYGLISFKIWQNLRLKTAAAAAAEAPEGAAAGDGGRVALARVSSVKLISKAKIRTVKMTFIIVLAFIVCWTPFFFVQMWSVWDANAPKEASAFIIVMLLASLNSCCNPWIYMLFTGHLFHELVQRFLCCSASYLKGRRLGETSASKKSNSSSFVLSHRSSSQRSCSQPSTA
Test: Ca2+ mobilization in cells stably expressing OTR (FLIPR, antagonist mode)
Type: cell-based
Conditions: OTR/HEK293 stably transfected cell line
From the text: Test Example 1. Determination of the Effect of the Compound of the Present Disclosure on Ca^2+ Mobilization in Cells Stably Expressing OTR
To measure the antagonistic effect of the compound of the present disclosure on OTR activity expressed in the OTR/HEK293 stably transfected cell line.
• DMEM medium (Invitrogen, 11965) • F12 medium (Invitrogen, 11765) • Fetal bovine serum (Excell, FSP500) • Geneticin (Invitrogen, 10131) • Penicillin/Streptomycin (Invitrogen, SV30010) • Fluo-4 Direct kit (Invitrogen, F10471) • 384-well cell plate (Greiner, 781090) • 384-well compound plate (Greiner, 781280)
• FLIPR instrument (Molecular Device) • EHCO instrument (Labcyte) • Cell counter (Beckman, Vi-cell XR)
The cultured cells were washed twice with pre-heated DPBS and digested with appropriate amount of trypsin at 37° C. for 1 minute, and then appropriate amount of culture medium was added to terminate digestion. The cells were centrifuged at 1000 rpm for 5 minutes. The supernatant was gently discarded without disturbing the cell pellet at the bottom. The cells were resuspended in culture medium and 1 mL was taken out for cell counting and viability assessment using Vi-CELL™. The cells were diluted to 1×10^6 cells/mL (20,000 cells/20 μL) with culture medium, seeded into a 384-well cell plate and incubated at 37° C. with 5% CO2 for 16-20 h.
Formulation of 250 mM Probenecid solution: according to the kit instructions, 1 mL of FLIPR buffer salt solution was added to 77 mg of probenecid, prepared fresh just before use. Formulation of Fluo-4 Direct™ (2×, 8 μM) loading buffer: according to the kit instructions, the required amount of Fluo-4 Direct™ was taken out and thawed in advance, 10 mL of FLIPR buffer salt solution and 0.2 mL of 250 mM Probenecid solution were added to each tube, and the mixture was vortexed in the dark for >5 minutes, prepared fresh just before use.
Preparation of agonist reference compound plate: the agonist was diluted 3-fold in 10 points using ECHO, and 750 nL was transferred to the corresponding compound plate using ECHO.
Preparation of reference and test compound plates: the test compound was diluted 3-fold in 10 points with ECHO, and 900 nL was transferred to the corresponding compound plate; the reference compound was diluted 3-fold in 10 points with assay buffer salt solution, and 30 μL was transferred to the compound plate.
30 μL of assay buffer salt solution was added to the corresponding compound plate, and the mixture was centrifuged at 1000 rpm for 1 minute.
The cell plate prepared the day before was taken out of the incubator, and 20 μL of 2×Fluo-4 Direct™ buffer was added to each well, with a total volume of 40 μL.
The plate was incubated in an incubator at 37° C. with 5% CO2 for 50 minutes, and then placed at room temperature for 10 minutes.
The compound plate, cell plate, and pipette tips were placed into the instrument.
For the agonist reference compound plate: the FLIPR instrument software was run, 10 μL of the pre-determined concentration of agonist reference compound was added to the cell plate following the preset protocol, and the fluorescence signal was read. After reading, the data were exported to calculate the EC80 for each cell line, and the agonist at 6×EC80 concentration was prepared.
For the compound plate: the FLIPR instrument software was run, 10 μL of the pre-determined concentration of test compound and the reference compound were added to the cell plate following the preset protocol, and the fluorescence signal was read. 10 μL of the reference compound agonist at 6×EC80 concentration was added to the cell plate, and the fluorescence signal was read. For antagonist detection of the compound, the data were exported using the “Max-Min” and “Read 1 to Maximum allowed” methods in the software, and the data were fitted using Prism.

Row | Structure (SMILES) | IC50
1 | CO/N=C1\C[C@@H](CO)N(C(=O)c2ccc(-c3cccc(C#N)c3C)cc2OC)C1 [Example A0245] | 58.1 nM
2 | CO/N=C1/CCN(C(=O)c2ccc(-c3cccc(C#N)c3C)cc2)[C@H](CO)C1 [Example A0249, (S,Z)-4′-(2-(Hydroxymethyl)-4-(methoxyimino)piperidine-1-carbonyl)-2-methyl-[1,1′-biphenyl]-3-carbonitrile] | 3060 nM
3 | CO/N=C1/C[C@@H](CO)N(C(=O)c2cnc(-c3cccc(C#N)c3C)cn2)C1 [Example A0251, (S,Z)-3-(5-(2-(Hydroxymethyl)-4-(methoxyimino)pyrrolidine-1-carbonyl)pyrazin-2-yl)-2-methylbenzonitrile] | 363 nM
4 | CO/N=C1\C[C@@H](CNC(C)=O)N(C(=O)c2ccc(-c3ccccc3C)cc2)C1 [Example C0003, (S, E)-N-((4-(Methoxyimino)-1-(2′-methyl-[1,1′-biphenyl]-4-carbonyl)pyrrolidin-2-yl)methyl)acetamide] | 2330 nM
5 | CO/N=C1\C[C@@H](CNC(=O)OC)N(C(=O)c2ccc(-c3ccccc3C)cc2)C1 [Example C0004, Methyl (S, E)-((4-(methoxyimino)-1-(2′-methyl-[1,1′-biphenyl]-4-carbonyl)pyrrolidin-2-yl)methyl)carbamate] | 628 nM
6 | CO/N=C1\C[C@@H](CNC(=O)CO)N(C(=O)c2ccc(-c3ccccc3C)cc2)C1 [Example C0005, (S, E)-2-Hydroxy-N-((4-(methoxyimino)-1-(2′-methyl-[1,1′-biphenyl]-4-carbonyl)pyrrolidin-2-yl)methyl)acetamide] | 1790 nM
7 | CO/N=C1/C[C@@H](CNC(=O)OC)N(C(=O)c2ccc(-c3ccccc3C)cc2)C1 [Example C0007, Methyl (S, Z)-((4-(methoxyimino)-1-(2′-methyl-[1,1′-biphenyl]-4-carbonyl)pyrrolidin-2-yl)methyl)carbamate] | 534 nM
8 | CO/N=C1/C[C@@H](CNC(=O)CO)N(C(=O)c2ccc(-c3ccccc3C)cc2)C1 [Example C0008, (S, Z)-2-Hydroxy-N-((4-(methoxyimino)-1-(2′-methyl-[1,1′-biphenyl]-4-carbonyl)pyrrolidin-2-yl)methyl)acetamide] | 1010 nM
9 | CO/N=C1/C[C@@H](CO)N(C(=O)c2cnc(-c3ccccc3C)cn2)C1 [Example C0013, (S, Z)-(2-(Hydroxymethyl)-4-(methoxyimino)pyrrolidin-1-yl)(5-(o-tolyl)pyrazin-2-yl)methanone] | 853 nM
10 | CO/N=C1/C[C@@H](CO)N(C(=O)c2ccc(-c3ccccc3C)cn2)C1 [Example C0015, (S, Z)-(2-(Hydroxymethyl)-4-(methoxyimino)pyrrolidin-1-yl)(5-(o-tolyl)pyridin-2-yl)methanone] | 888 nM
11 | CO/N=C1\C[C@@H](COCCO)N(C(=O)c2ccc(-c3ccccc3C)cc2)C1 [Example C0018, (S, E)-(2-((2-Hydroxyethoxy)methyl)-4-(methoxyimino)pyrrolidin-1-yl)(2′-methyl-[1,1′-biphenyl]-4-yl)methanone] | 545 nM
12 | CO/N=C1/C[C@@H](CO)N(C(=O)c2cnc(-c3ccccc3C)s2)C1 [Example C0030, (S, Z)-(2-(Hydroxymethyl)-4-(methoxyimino)pyrrolidin-1-yl)(2-(o-tolyl)thiazol-5-yl)methanone] | 1820 nM
13 | CO/N=C1\CN(C(=O)c2ccc(-c3ccccc3C)cc2)[C@@]2(CCNC2=O)C1 [Example C0039, (S, Z)-3-(Methoxyimino)-1-(2′-methyl-[1,1′-biphenyl]-4-carbonyl)-1,7-diazaspiro[4.4]nonan-6-one] | 295 nM
14 | CO/N=C1/C[C@@H](CO)N(C(=O)c2cc(=O)n(-c3cccc(C)c3C)cn2)C1 [Example C0077, (S, Z)-3-(2,3-Dimethylphenyl)-6-(2-(hydroxymethyl)-4-(methoxyimino)pyrrolidine-1-carbonyl)pyrimidin-4(3H)-one] | 673 nM
15 | CO/N=C1/C[C@@H](CO)N(C(=O)c2ccc(-c3cc(C#N)ccc3C)cc2)C1 [Example C0095, (S, Z)—4′-(2-(Hydroxymethyl)-4-(methoxyimino)pyrrolidine-1-carbonyl)-6-methyl-[1,1′-biphenyl]-3-carbonitrile] | 1260 nM

Results, then the molecule that gave them:

Row | IC50 | Structure (SMILES)
16 | 42.8 nM | CO/N=C1\C[C@@H](CO)N(C(=O)c2ccc(-c3cccc(C#N)c3C)cc2C)C1 [Example A0244, 3-(4-[(2S,4E)-2-(Hydroxymethyl)-4-(methoxyimino)pyrrolidine-1-carbonyl]-3-methylphenyl)-2-methylbenzonitrile]
17 | 57.8 nM | CO/N=C1\C[C@@H](CO)N(C(=O)c2ccc(-c3cccc(C#N)c3C)c(OC)c2)C1 [Example A0248, (S,E)-4′-(2-(Hydroxymethyl)-4-(methoxyimino)pyrrolidine-1-carbonyl)-2′-methoxy-2-methyl-[1,1′-biphenyl]-3-carbonitrile]
18 | 140 nM | CO/N=C1/C[C@@H](COCCO)N(C(=O)c2ccc(-c3ccccc3C)cc2)C1 [Example C0017, (S, Z)-(2-((2-Hydroxyethoxy)methyl)-4-(methoxyimino)pyrrolidin-1-yl)(2′-methyl-[1,1′-biphenyl]-4-yl)methanone]
19 | 115 nM | CO/N=C1/C[C@@H](CO)N(C(=O)c2ccc(-c3cccc4c3CCC4)cc2)C1 [Example C0051, (S, Z)-(4-(2,3-Dihydro-1H-inden-4-yl)phenyl)(2-(hydroxymethyl)-4-(methoxyimino)pyrrolidin-1-yl)methanone]
20 | 82.9 nM | CO/N=C1\C[C@@H](CO)N(C(=O)c2ccc(-c3cccc(C#N)c3C)cc2)C1 [Example C0057, (S, E)-4′-(2-(Hydroxymethyl)-4-(methoxyimino)pyrrolidine-1-carbonyl)-2-methyl-[1,1′-biphenyl]-3-carbonitrile]
21 | 237 nM | CO/N=C1/C[C@@H](CO)N(C(=O)c2cc(C(F)(F)F)c(-c3cccc(C)c3C)cn2)C1 [Example C0071, (S, Z)-(5-(2,3-Dimethylphenyl)-4-(trifluoromethyl)pyridin-2-yl)(2-(hydroxymethyl)-4-(methoxyimino)pyrrolidin-1-yl)methanone]
22 | 129 nM | CO/N=C1/C[C@@H](CO)N(C(=O)c2ncc(-c3cccc(C)c3C)cc2OC)C1 [Example C0081, (S, Z)-(5-(2,3-Dimethylphenyl)-3-methoxypyridin-2-yl)(2-(hydroxymethyl)-4-(methoxyimino)pyrrolidin-1-yl)methanone]
23 | 161 nM | CO/N=C1/C[C@@H](CO)N(C(=O)c2ccc(-c3cccc(C)c3C)c(C(F)(F)F)n2)C1 [Example C0085, (S, Z)-(5-(2,3-Dimethylphenyl)-6-(trifluoromethyl)pyridin-2-yl)(2-(hydroxymethyl)-4-(methoxyimino)pyrrolidin-1-yl)methanone]
24 | 176 nM | CO/N=C1/C[C@@H](CO)N(C(=O)c2ncc(-c3cccc(C)c3C)c(C(F)(F)F)n2)C1 [Example C0087, (S, Z)-(5-(2,3-Dimethylphenyl)-4-(trifluoromethyl)pyrimidin-2-yl)(2-(hydroxymethyl)-4-(methoxyimino)pyrrolidin-1-yl)methanone]
25 | 279 nM | CO/N=C1/C[C@@H](CO)N(C(=O)c2ccc(-c3ccnc(C#N)c3C)cc2)C1 [Example C0091, (S, Z)-4-(4-(2-(Hydroxymethyl)-4-(methoxyimino)pyrrolidine-1-carbonyl)phenyl)-3-methylpicolinonitrile]
